Source: article PMC7419465, “Response and Adherence to Nilotinib in Daily practice (RAND study): an in-depth observational study of chronic myeloid leukemia patients treated with nilotinib” (European Journal of Clinical Pharmacology, 2020)
Where “and” joins values, the source holds several entries; their conditions need not be identical. Equal values may be shown once. Read-outs that look alike come from different tables or passages of the source.

What was measured:
[1] = Patient-reported side effects of nilotinib (questionnaire, 5-point Likert scale); format: in vivo, CP-CML patients
From the text: At study entry, patients completed a self-administered composite questionnaire including demographic characteristics (date of birth, gender, education, living status, and working status), use of St. John’s wort, use of grapefruit (juice), quality of life (Short Form-12 Health Survey [SF-12]), side effects, and beliefs about medication in general (Beliefs about Medicines Questionnaire [BMQ]-General) and specifically about nilotinib (BMQ-Specific). The questionnaire at 3, 6, and 12 months also included the MARS-5 and questions on nilotinib intake in relation to food intake, use of tools to prevent forgetting, illness perception (Brief Illness Perception Questionnaire [Brief IPQ]), and information satisfaction (Satisfaction with Information about Medicines Scale [SIMS])[51, 52]. Education was assessed as the highest level completed, and dichotomized into higher education (higher general secondary education or above) and lower education. Living status was categorized as living alone or not living alone, and work status as having paid work or not. Questions on side effects were based on literature data and concerned specific nilotinib toxicities occurring in > 10% of patients (headache, nausea, rash, itching, myalgia, fatigue). Answers were scored on a 5-point Likert scale (0 = not at all to 4 = very much). Symptoms scored as “3 = a lot” or “4 = very much” were considered “severe.”

[2] = Nilotinib trough plasma concentration (Cmin) from dried blood spot self-sampling; format: in vivo, CP-CML patients
Experimental: Blood sampling was performed by the patient at home by means of a validated dried blood spot (DBS) sampling method. Using the DBS, nilotinib plasma concentrations were calculated as previously reported. Patients were instructed to sample blood at predose at baseline (if already on nilotinib treatment), 3, 6, and 12 months from study entry. The time of blood sampling, time of last nilotinib intake, and body weight were recorded in patient diaries. Cmin samples were defined as those taken between 8 and 16 h after the prior dose.
Individual measures of exposure were obtained using averaged Cmin values for individual patients based on the measurements obtained at baseline, 3, 6, and 12 months. Intra-patient variability in nilotinib Cmin was analyzed in patients who had ≥ 2 analyzed samples available and expressed as the average coefficient of variation (CV%). Missing Cmin values were imputed with the mean of the observed Cmin values for the corresponding dose. Univariable linear regression was used to identify variables (one by one) related to nilotinib Cmin. GEE was used to identify whether the occurrence of side effects was related to observed nilotinib Cmin values (without imputation) obtained at baseline, 3, 6, and 12 months.

BCR-ABL transcript level [3] = system: BCR-ABL transcript level; design: method as in PMID 26837842; settings: 5-year update of the ENESTnd trial, first-line; cited from earlier work
BCR-ABL transcript level [4] = assay: Molecular response (MMR, BCR-ABL transcript level ≤ 0.1% IS) to nilotinib treatment; format: in vivo, CP-CML patients
Experimental: The response was considered optimal when a MMR was achieved within 12 months of nilotinib treatment. MMR was defined as a BCR-ABL transcript level of ≤ 0.1% on the International Scale. For patients already on treatment at entry, the time until MMR was obtained retrospectively from their medical files.
Comparison of adherence (continuous) and Cmin values (either grouped into quartiles [Q1 vs. Q2–Q4] or based on a previously reported threshold concentration of 490 μg/L) among response groups (time to MMR after start of nilotinib treatment ≤ 12 months vs. > 12 months, stratified by line of treatment) was performed using Mann-Whitney tests and Fisher’s exact tests. Time to MMR was assessed using the Kaplan Meier method with logrank test. In these outcome analyses, the mean of each measure of adherence and Cmin values was used. For all analyses, a two-tailed significance level of 0.05 was used. p values below this level were considered statistically significant. All statistical analyses were performed using SPSS version 22 for Windows (IBM Corp, Armonk, NY, USA).

[5] = Nilotinib treatment discontinuation during the 12-month study period; format: in vivo, CP-CML patients; settings: of 68 patients
From the text: In this multicenter prospective observational study, conducted between August 2013 and April 2017 in six Dutch hospitals, CP-CML patients using nilotinib were followed for 12 months. Initially, it was the aim only to include newly diagnosed CP-CML patients starting nilotinib treatment. […] The study was registered in the Netherlands Trial Register (NTR3992) and the protocol has been published previously.
Information on disease characteristics, medical history, co-medication, and nilotinib treatment was obtained from the patient’s medical file and pharmacy dispensing record.

[6] = 42 patients with ≥ 2 analyzed samples
[7] = second/third-line nilotinib treatment

- Observed nilotinib Cmin, mean ± SD ([2]; 150 mg BID (n = 15 samples)): 835 ± 412 ng/mL
- Observed nilotinib Cmin, median (IQR) ([2]; 150 mg BID (n = 15 samples)): 656 (548–1042) μg/L
- Observed nilotinib Cmin, range ([2]; 150 mg BID (n = 15 samples)): 390 to 1793 ng/mL
- Observed nilotinib Cmin, mean ± SD ([2]; 300 mg BID (n = 85 samples)): 1021 ± 472 ng/mL
- Observed nilotinib Cmin, median (IQR) ([2]; 300 mg BID (n = 85 samples)): 954 (654–1274) μg/L
- Observed nilotinib Cmin, range ([2]; 300 mg BID (n = 85 samples)): 196 to 2413 ng/mL
- Observed nilotinib Cmin, mean ± SD ([2]; 300 mg QD (n = 6 samples)): 567 ± 110 ng/mL
- Observed nilotinib Cmin, median (IQR) ([2]; 300 mg QD (n = 6 samples)): 589 (450–658) μg/L
- Observed nilotinib Cmin, range ([2]; 300 mg QD (n = 6 samples)): 418 to 702 ng/mL
- Observed nilotinib Cmin, mean ± SD ([2]; 400 mg BID (n = 25 samples)): 1497 ± 597 ng/mL
- Observed nilotinib Cmin, median (IQR) ([2]; 400 mg BID (n = 25 samples)): 1253 (1054–2053) μg/L
- Observed nilotinib Cmin, range ([2]; 400 mg BID (n = 25 samples)): 342 to 2540 ng/mL
- Observed nilotinib Cmin, mean ± SD ([2]; 400 mg QD (n = 6 samples)): 536 ± 57 ng/mL
- Observed nilotinib Cmin, median (IQR) ([2]; 400 mg QD (n = 6 samples)): 552 (517–570) μg/L
- Observed nilotinib Cmin, range ([2]; 400 mg QD (n = 6 samples)): 422 to 574 ng/mL
- intra-patient variability, %CV in Cmin (mean ± SD) [2, 6]: 25 ± 19%
- intra-patient variability, %CV in Cmin, median [2, 6]: 20%
- intra-patient variability, %CV in Cmin, range [2, 6]: 1–91%
- patients with nilotinib Cmin generally above the therapeutic target ([2]; in vivo): 95%
- range of Cmin values below the threshold concentration of 490 μg/L ([2]; nine patients): 196 to 467 ng/mL
- patients with a Cmin below the threshold concentration of 490 μg/L at any time ([2]; nine patients of 56): 16%
- Cmin median (IQR) ([2]; patients reporting Fatigue: Mild (n = 72)): 974 (644–1373) μg/L
- Cmin median (IQR) ([2]; patients reporting Fatigue: None (n = 32)): 777 (561–1087) μg/L
- Cmin median (IQR) ([2]; patients reporting Fatigue: Severe (n = 25), p any .007, severe .023): 1160 (787–1468) μg/L
- Cmin median (IQR) ([2]; patients reporting Headache: Mild (n = 40)): 905 (625–1254) μg/L
- Cmin median (IQR) ([2]; patients reporting Headache: None (n = 91)): 970 (618–1288) μg/L
- Cmin median (IQR) ([2]; patients reporting Headache: Severe (n = 1)): 2413 µg/L
- Cmin median (IQR) ([2]; patients reporting Itching: Mild (n = 61)): 923 (740–1243) μg/L
- Cmin median (IQR) ([2]; patients reporting Itching: None (n = 61)): 954 (565–1283) μg/L
- Cmin median (IQR) ([2]; patients reporting Itching: Severe (n = 11), p severe .012): 1260 (1021–1800) μg/L
- Cmin median (IQR) ([2]; patients reporting Myalgia: Mild (n = 62)): 1031 (765–1380) μg/L
- Cmin median (IQR) ([2]; patients reporting Myalgia: None (n = 56)): 857 (574–1219) μg/L
- Cmin median (IQR) ([2]; patients reporting Myalgia: Severe (n = 12)): 840 (658–1553) μg/L
- Cmin median (IQR) ([2]; patients reporting Nausea: Mild (n = 27)): 1210 (750–1798) μg/L
- Cmin median (IQR) ([2]; patients reporting Nausea: None (n = 104)): 945 (615–1249) μg/L
- Cmin median (IQR) ([2]; patients reporting Nausea: Severe (n = 1)): 648 µg/L
- Cmin median (IQR) ([2]; patients reporting Rash: None (n = 75)): 964 (598–1338) μg/L
- Cmin median (IQR) ([2]; patients reporting Rash: Severe (n = 12)): 1157 (764–1540) μg/L
SMILES: Cc1cn(-c2cc(NC(=O)c3ccc(C)c(Nc4nccc(-c5cccnc5)n4)c3)cc(C(F)(F)F)c2)cn1 [nilotinib]
- Fatigue, % of patients experiencing (any severity) [1]: About 75%
- Itching, % of patients reporting (any severity) [1]: 59%
- Myalgia, % of patients reporting (any severity) [1]: 54%
- Rash, % of patients reporting (any severity) [1]: 43%
- Fatigue, % mild ([1]; mild = a little bit/rather): 54.9%
- Headache, % mild ([1]; mild = a little bit/rather): 35.8%
- Itching, % mild ([1]; mild = a little bit/rather): 51.9%
- Myalgia, % mild ([1]; mild = a little bit/rather): 48.1%
- Nausea, % mild ([1]; mild = a little bit/rather): 20.4%
- Rash, % mild ([1]; mild = a little bit/rather): 35.2%
- Fatigue, % severe ([1]; severe = a lot/very much): 20% and 19.6%
- Headache, % severe ([1]; severe = a lot/very much): 1.9%
- Itching, % severe ([1]; severe = a lot/very much): 7.4%
- Myalgia, % severe ([1]; severe = a lot/very much): 6% and 5.8%
- Nausea, % severe ([1]; severe = a lot/very much): 1.9%
- Rash, % severe ([1]; severe = a lot/very much): 7.4%
- 1-year MMR rate (BCR-ABL transcript level [3]): 55%
- 1-year MMR rate according to nilotinib Cmin (BCR-ABL transcript level [4]; All patients, Cmin quartile Q1 (< 635 μg/L)): 56% (5/9)
- 1-year MMR rate according to nilotinib Cmin (BCR-ABL transcript level [4]; All patients, Cmin quartile Q2 (Q2–Q3 635–< 1346 μg/L)): 88% (7/8)
- 1-year MMR rate according to nilotinib Cmin (BCR-ABL transcript level [4]; All patients, Cmin quartile Q3 (Q2–Q3 635–< 1346 μg/L)): 75% (12/16)
- 1-year MMR rate according to nilotinib Cmin (BCR-ABL transcript level [4]; All patients, Cmin quartile Q4 (≥ 1346 μg/L)): 30% (3/10)
- median time to MMR12 (BCR-ABL transcript level [4]; Cmin quartile Q1, n = 5): 6.4 months
- median time to MMR12 (BCR-ABL transcript level [4]; Cmin quartile Q2, n = 7): 6.7 months
- median time to MMR12 (BCR-ABL transcript level [4]; Cmin quartile Q3, n = 12): 4.3 months
- median time to MMR12 (BCR-ABL transcript level [4]; Cmin quartile Q4, n = 3): 2.8 months
- 1-year MMR rate according to nilotinib Cmin (BCR-ABL transcript level [4]; Subpopulation 1A/1B (1st line treatment), Q1 (< 635 μg/L)): 71% (5/7)
- 1-year MMR rate according to nilotinib Cmin (BCR-ABL transcript level [4]; Subpopulation 1A/1B (1st line treatment), Q2): 100% (5/5)
- 1-year MMR rate according to nilotinib Cmin (BCR-ABL transcript level [4]; Subpopulation 1A/1B (1st line treatment), Q3): 73% (8/11)
- 1-year MMR rate according to nilotinib Cmin (BCR-ABL transcript level [4]; Subpopulation 1A/1B (1st line treatment), Q4 (≥ 1346 μg/L)): 40% (2/5)
- 1-year MMR rate according to nilotinib Cmin (BCR-ABL transcript level [4]; Subpopulation 2A/2B (≥ 2nd line treatment), Q1 (< 635 μg/L)): 0% (0/2)
- 1-year MMR rate according to nilotinib Cmin (BCR-ABL transcript level [4]; Subpopulation 2A/2B (≥ 2nd line treatment), Q3): 80% (4/5)
- 1-year MMR rate according to nilotinib Cmin (BCR-ABL transcript level [4]; Subpopulation 2A/2B (≥ 2nd line treatment), Q4 (≥ 1346 μg/L)): 20% (1/5)
- mean time to MMR12 (BCR-ABL transcript level [4]; first-line nilotinib treatment): 5.9 ± 3.2 months
- median time to MMR12 (BCR-ABL transcript level [4]; first-line nilotinib treatment): 6.1 months
- time to MMR12, range (BCR-ABL transcript level [4]; first-line nilotinib treatment): 1.2–12.9 months
- 1-year MMR rate (BCR-ABL transcript level [4]; first-line nilotinib treatment (subpopulations 1A/1B), 20/28): 71%
- overall 1-year MMR rate (BCR-ABL transcript level [4]; range over lines of treatment): 47 to 71%
- mean time to MMR12 (BCR-ABL transcript level [4]; [7]): 5.8 ± 4.4 months
- median time to MMR12 (BCR-ABL transcript level [4]; [7]): 3.7 months
- time to MMR12, range (BCR-ABL transcript level [4]; [7]): 2.6–12.4 months
- 1-year MMR rate (BCR-ABL transcript level [4]; second/third-line nilotinib treatment (subpopulations 2A/2B), 7/15): 47%
- number of patients who discontinued nilotinib treatment due to progression [5]: 4
- number of patients who discontinued nilotinib treatment due to side effects [5]: 6
